Patent US20240180881A1, “METHODS FOR DECREASING RESISTANCE TO CHEMOTHERAPY” (National Institute of Immunology, priority 2022, published 2024)
Structures can show the parent of a compound that is named as a salt. Where two headings read alike, the source gives them in different places.

Key:
Type in all cases: cell-based
[1] = molecular target: T1, BLM-RAD54 interaction (BLM F2 and N-RAD54 F1) (Homo sapiens, UniProt Q92698); assay: Renilla luciferase-based protein complementation assay (PCA)
T1 construct: expressed in transfected cells; host or cells: HEK293T
T1 sequence (Q92698 1-212): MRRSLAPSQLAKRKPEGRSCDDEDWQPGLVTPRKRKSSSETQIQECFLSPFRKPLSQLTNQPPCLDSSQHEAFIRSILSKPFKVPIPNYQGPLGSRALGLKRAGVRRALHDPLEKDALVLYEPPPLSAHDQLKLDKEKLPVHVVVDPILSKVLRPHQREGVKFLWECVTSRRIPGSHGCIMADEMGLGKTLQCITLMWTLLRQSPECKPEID
Protocol: Specifically, N-RAD54-F1, C-RAD54-F1, BLM-F1 and BLM-F2 were transfected in HEK293T. Forty-eight hours post-transfection, Renilla luciferase-based PCA were carried out with the indicated combination of the expressed proteins. The experiment was repeated three times. Mean±S.D.
Using the Renilla luciferase-based protein complementation assay described earlier, 1280 FDA/EMA approved small molecules present in Prestwick chemical library were screened for their ability to disrupt BLM-RAD54 interaction. Each of the small molecules was incubated with HEK293T cells expressing BLM-F2 and N-RAD54-F1. Compared to cells expressing only BLM-F2 and N-RAD54-F1, the decrease in Renilla luciferase intensity in presence of each small molecule was monitored. Percentage disruption of the interaction between BLM F2 and N-RAD54 F1 was plotted in form of heatmap. The disruption of the BLM-RAD54 interaction was determined by a decrease in the Renilla luciferase activity as compared to control untreated cells.
The percentage disruption of the interaction between BLM F2 and N-RAD54 F1 was plotted as a non-linear regression line. The data was from three independent experiments.
Renilla Luciferase (Rlu) based Protein complementation assay was carried out as described in (Stefan et al., 2007). For preliminary screening of the Prestwick Chemical Library (containing 1280 FDA/EMA approved small molecules), HEK293T cells were seeded in the 6-well plates a day prior to the transfection. Next day the cells were transfected by 2 μg each of pcDNA3.1 N-RAD54 F1, pcDNA3.1 C-RAD54 F1, pcDNA3.1 BLM F1, pcDNA3.1 BLM F2 plasmids (alone or in different combinations) using Lipofectamine 2000 (according to the manufacturer's protocol). 36 hours post-transfection, approximately […] cells were seeded in a 96-well plate and incubated at 37° C. for 2 hour with or without 10 μM of the 1280 small molecules present in the library. 10 μM of Coenleterazine h was added into each well and Rluc activity was monitored for the first 10 seconds in Varioskan Microplate Reader (Thermo Fisher Scientific). The validation screen was performed with 17 small molecules at 100 μM, 10 μM, 1 μM, 100 nM, 10 nM and 1 nM concentrations. The percentage reduction in the protein-protein interaction was then calculated as compared to the control wells (without any small molecule).

HCT116 WT cells = assay: MTT assay, chemotherapeutic drug gradient with or without disruptor
Protocol: (§1) The three resistant lines and their wildtype counterpart HCT116 were exposed to a gradient of CPT, CDDP or 1-OHP.
(§2) Concentrations of CPT used: 0.140 nM, 20 nM, 50 nM, 1000 nM. Concentration of 1-OHP: 0.14 μM, 2 μM, 4 μM, 6 μM, 8 μM. Concentrations of CDDP used: 0.140 μM, 2 μM, 5 μM, 10 μM. The percentage of viable cells were determined by MTT assays (FIG. 12A-12C). The data in FIG. 12A and FIG. 12C is from three independent experiments and the data in FIG. 12B is from nine independent experiments. […] The levels of MRP2, MRP3, MRP5, MXR were quantitated from three independent experiments. […] Specifically, HCT116 IC60 CPTR cells were transfected with the HR substrate for 72 hours and the levels of HR was determined (FIG. 6A). The data is from three independent experiments. […] The number of soft agar colonies in each condition were counted. The data is from three independent experiments.
To generate camptothecin and cisplatin resistant cells (named as HCT116 IC60 CPT^R, HCT116 IC60 CDDP^R respectively), HCT116 wild type were seeded in a 10 cm dish to a confluency of 80%. The IC20 concentrations of cisplatin (3.38 μM) and camptothecin (12.6 nM) was added for 2 hours and 6 hours, respectively. Post treatment, the cells were washed twice with 1×PBS and fresh media was added. After every 48 hours, the media was changed and IC20 concentration of the drugs were added only if the confluency of cells was at least 80%. […] Resistant index was calculated using the following formula: Resistant index=IC60 of the resistant cells/IC60 of the parental cells.
Cells were seeded in a 96-well plate overnight. Next day, the culturing media was replaced with Optimem media, followed by incubation with BLM_CPP or SCM_CPP for 1 hr. The final concentrations of the peptides were 450 nM for cisplatin (CDDP) and 180 nM (for all other drugs). […] Post treatment, the cells were washed with 1×PBS and fresh media was added. After 72 hours, MTT assay was carried out to determine the percentage cell viability of the cells with respect to the untreated cells.

HCT116 IC60 CPTR cells = assay: MTT assay, CPT gradient with or without disruptor; conditions: Homo sapiens, HCT-116, CPT gradient alone, 72 hours, read-out: EC50 (μM), HCT116 WT CPT^R
Protocol: as §1, §2
To generate camptothecin and cisplatin resistant cells (named as HCT116 IC60 CPT^R, HCT116 IC60 CDDP^R respectively), HCT116 wild type were seeded in a 10 cm dish to a confluency of 80%. The IC20 concentrations of cisplatin (3.38 μM) and camptothecin (12.6 nM) was added for 2 hours and 6 hours, respectively. […] Resistant index was calculated using the following formula: Resistant index=IC60 of the resistant cells/IC60 of the parental cells. […]

[2] = disruption of BLM F2 / N-RAD54 F1 interaction, HEK293T cells, 1 nM to 100 μM, read-out: EC50
[3] = HCT116, used to generate resistant cells

CN(C)C(=N)N=C(N)N [C4, Metformin hydrochloride]
EC50 [1, 2]: 0.00301 ± 0.000812 µM

CC[C@@]1(O)C(=O)OCc2c1cc1n(c2=O)Cc2cc3ccccc3nc2-1 [CPT, camptothecin]
IC40 concentration (HCT116 WT cells; [3]): 0.0308 µM | IC60 concentration (HCT116 WT cells; [3]): 0.0926 µM | EC50 (HCT116 WT cells; Homo sapiens, HCT-116, CPT gradient alone, MTT, 72 hours, read-out: EC50 (μM), HCT116 WT): 0.043 ± 0.0037 µM | IC20 (HCT116 WT cells; Homo sapiens, HCT-116, HCT116 wild type, used to generate resistant cells, read-out: IC20 concentration): 0.0126 µM | EC50 (HCT116 IC60 CPTR cells): 0.354 ± 0.00561 µM

CC(C)CC1C(=O)N2CCC[C@H]2[C@]2(O)O[C@](NC(=O)[C@@H]3C=C4c5cccc6[nH]c(Br)c(c56)C[C@H]4N(C)C3)(C(C)C)C(=O)N12 (some centres unmarked) [C12, Bromocryptine mesylate]
EC50 [1]: 0.0414 ± 0.00446 µM

C[C@]12C=CC(=O)C=C1CC[C@@H]1[C@@H]2C(=O)C[C@@]2(C)[C@H]1CC[C@]2(O)C(=O)CO [C6, Prednisone]
EC50 [1, 2]: 0.00626 ± 0.002 µM

COc1ccc(CC2c3cc(OC)c(OC)cc3CC[N+]2(C)CCC(=O)OCCCCCOC(=O)CC[N+]2(C)CCc3cc(OC)c(OC)cc3C2Cc2ccc(OC)c(OC)c2)cc1OC (centres unmarked) [C5, Atracurum besylate]
EC50 [1, 2]: 0.00538 ± 0.00217 µM

CC[C@H]1OC(=O)[C@H](C)[C@@H](O[C@H]2C[C@@](C)(OC)[C@@H](O)[C@H](C)O2)[C@H](C)[C@@H](O[C@@H]2O[C@H](C)C[C@H](N(C)C)[C@H]2O)[C@](C)(O)C[C@@H](C)C(=O)[C@H](C)[C@@H](O)[C@]1(C)O [C15, Erythromycin]
EC50 [1, 2]: 0.00812 ± 0.00389 µM

NC(=O)NC1NC(=O)NC1=O (centres unmarked) [C2, Allantoin]
EC50 [1, 2]: 0.0179 ± 0.00182 µM
